Drawing on patent publication US9212182B2, “Bicyclic sulfonamide compounds as sodium channel inhibitors” (AMGEN INC., priority 2013, dated 2015), this text covers IC50 for 30 compounds.

Each structure is given as a SMILES string. Read-outs that look alike come from different tables or passages of the source.

For the test, the target named is Nav 1.7 (Homo sapiens (Human), UniProt Q15858). Description: in-vitro Nav 1.7 PX (IC50). In kind it is cell-based.
Setting [1] is: in-vitro Nav 1.7 PX data (PatchXpress).

Chain of Nav 1.7 (Q15858 whole entry): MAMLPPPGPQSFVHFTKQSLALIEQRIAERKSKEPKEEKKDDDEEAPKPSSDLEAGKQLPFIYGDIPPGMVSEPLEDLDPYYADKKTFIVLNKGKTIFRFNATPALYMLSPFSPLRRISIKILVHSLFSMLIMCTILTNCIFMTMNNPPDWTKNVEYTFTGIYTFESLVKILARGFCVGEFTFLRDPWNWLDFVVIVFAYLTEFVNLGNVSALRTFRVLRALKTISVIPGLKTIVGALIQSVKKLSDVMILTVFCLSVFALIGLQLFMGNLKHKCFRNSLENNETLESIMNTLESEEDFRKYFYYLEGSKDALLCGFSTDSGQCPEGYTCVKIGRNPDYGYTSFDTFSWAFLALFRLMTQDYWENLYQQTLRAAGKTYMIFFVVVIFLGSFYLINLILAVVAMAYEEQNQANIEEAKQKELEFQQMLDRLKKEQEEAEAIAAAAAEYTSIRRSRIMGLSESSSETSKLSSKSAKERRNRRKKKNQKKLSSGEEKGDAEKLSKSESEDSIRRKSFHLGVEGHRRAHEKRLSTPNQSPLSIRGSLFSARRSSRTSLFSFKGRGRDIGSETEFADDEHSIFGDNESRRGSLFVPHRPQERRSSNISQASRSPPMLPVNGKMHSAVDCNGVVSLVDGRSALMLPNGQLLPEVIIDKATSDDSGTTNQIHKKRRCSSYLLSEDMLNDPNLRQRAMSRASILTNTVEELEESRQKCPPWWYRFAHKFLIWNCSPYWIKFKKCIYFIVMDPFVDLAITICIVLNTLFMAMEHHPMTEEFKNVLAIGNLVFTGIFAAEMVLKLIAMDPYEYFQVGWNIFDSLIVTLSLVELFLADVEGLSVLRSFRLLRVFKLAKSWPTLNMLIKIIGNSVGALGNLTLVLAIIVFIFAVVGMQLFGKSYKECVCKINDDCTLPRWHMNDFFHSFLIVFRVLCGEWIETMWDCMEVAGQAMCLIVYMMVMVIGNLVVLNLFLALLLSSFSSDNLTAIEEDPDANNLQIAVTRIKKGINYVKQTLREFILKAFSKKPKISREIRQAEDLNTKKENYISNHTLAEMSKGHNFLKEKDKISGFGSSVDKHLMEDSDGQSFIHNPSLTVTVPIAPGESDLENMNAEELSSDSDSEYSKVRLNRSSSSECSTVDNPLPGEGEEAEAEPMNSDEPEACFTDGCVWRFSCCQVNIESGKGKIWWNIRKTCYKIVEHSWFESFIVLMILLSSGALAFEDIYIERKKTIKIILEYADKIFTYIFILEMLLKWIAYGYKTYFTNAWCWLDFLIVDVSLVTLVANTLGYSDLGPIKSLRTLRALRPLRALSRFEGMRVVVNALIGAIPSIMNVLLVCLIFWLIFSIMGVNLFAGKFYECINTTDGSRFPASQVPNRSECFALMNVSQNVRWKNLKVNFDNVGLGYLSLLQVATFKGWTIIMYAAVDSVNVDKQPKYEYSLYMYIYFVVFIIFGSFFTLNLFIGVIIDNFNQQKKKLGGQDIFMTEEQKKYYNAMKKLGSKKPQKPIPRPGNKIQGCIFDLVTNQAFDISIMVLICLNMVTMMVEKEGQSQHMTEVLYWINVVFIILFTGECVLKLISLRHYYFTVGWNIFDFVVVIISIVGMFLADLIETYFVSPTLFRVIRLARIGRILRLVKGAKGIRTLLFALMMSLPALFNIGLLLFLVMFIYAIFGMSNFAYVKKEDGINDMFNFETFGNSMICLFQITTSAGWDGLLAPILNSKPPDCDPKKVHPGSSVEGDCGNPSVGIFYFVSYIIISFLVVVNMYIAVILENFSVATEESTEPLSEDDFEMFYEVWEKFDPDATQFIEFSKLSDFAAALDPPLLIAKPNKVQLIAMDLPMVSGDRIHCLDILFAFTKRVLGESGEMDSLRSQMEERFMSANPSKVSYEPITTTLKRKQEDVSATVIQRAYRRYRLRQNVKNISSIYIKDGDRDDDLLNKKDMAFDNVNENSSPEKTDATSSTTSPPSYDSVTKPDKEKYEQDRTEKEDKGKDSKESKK

Where the note is “in-vitro Nav 1.7 PX data”, `COc1cc(Cl)ccc1-c1ccc(-n2c(=O)ccc3cc(S(=O)(=O)Nc4ccon4)ccc32)c(OC)c1` [Example 816, 1-(4′-chloro-2′,3-dimethoxy-4-biphenylyl)-N-3-isoxazolyl-2-oxo-1,2-dihydro-6-quinolinesulfonamide] had a 50% inhibitory concentration (IC50) of 27 nM.

With `COc1cc(-c2cccc(C#N)c2)c(F)cc1-n1c(=O)ccc2cc(S(=O)(=O)Nc3ccon3)ccc21` (atropisomer, axis not shown; (M)) [Example 499, (M)-1-(3′-cyano-2-fluoro-5-methoxy-4-biphenylyl)-N-3-isoxazolyl-2-oxo-1,2-dihydro-6-quinolinesulfonamide], under “in-vitro PatchXpress (PX)”, half-maximal inhibition (IC50) required 24800 nM.

As for `COc1ccc(Br)cc1-n1c(=O)ccc2cc(S(=O)(=O)Nc3ccon3)ccc21` [Example 851, 1-(5-bromo-2-methoxyphenyl)-N-3-isoxazolyl-2-oxo-1,2-dihydro-6-quinolinesulfonamide], where the note is “in-vitro Nav 1.7 PX data”, the IC50 came to 371 nM.

In the case of `COc1cc(-c2ccc(Cl)c(F)c2)c(F)cc1-n1c(=O)ccc2cc(S(=O)(=O)Nc3ccon3)ccc21` (atropisomer, axis not shown; (P)) [Example 503, (P)-1-(4′-chloro-2,3′-difluoro-5-methoxy-4-biphenylyl)-N-3-isoxazolyl-2-oxo-1,2-dihydro-6-quinolinesulfonamide], under “in-vitro PatchXpress (PX)”, half-maximal inhibition (IC50) required 1100 nM. This counts as single-digit micromolar.

Consider `COc1ccc(-c2cncc(F)c2)cc1-n1c(=O)ccc2cc(S(=O)(=O)Nc3ccon3)ccc21` [Example 485, 1-(5-(5-fluoro-3-pyridinyl)-2-methoxyphenyl)-N-3-isoxazolyl-2-oxo-1,2-dihydro-6-quinolinesulfonamide], for which the 50% inhibitory concentration (IC50) was found to be 690 nM. That is a sub-micromolar value.

For `COc1cc(Br)c(F)cc1-n1c(=O)ccc2cc(S(=O)(=O)Nc3cccc(C)n3)ccc21` [Example 989, 1-(4-bromo-5-fluoro-2-methoxyphenyl)-N-(6-methyl-2-pyridinyl)-2-oxo-1,2-dihydro-6-quinolinesulfonamide], where the note is “in-vitro Nav 1.7 PX data”, the IC50 amounted to 8610 nM.

As for `COc1cc(-c2cc(F)cc(Cl)c2)c(C#N)cc1-n1c(=O)ccc2cc(S(=O)(=O)Nc3ccon3)ccc21` (atropisomer, axis not shown; (P)) [Example 433, (P)-1-(3′-chloro-2-cyano-5′-fluoro-5-methoxy-4-biphenylyl)-N-3-isoxazolyl-2-oxo-1,2-dihydro-6-quinolinesulfonamide], half-maximal inhibition (IC50) was put at 10 nM.

The compound `COc1cc(-c2cc(F)cc(Cl)c2)c(F)cc1-n1c(=O)ccc2cc(S(=O)(=O)Nc3cc(C)ncn3)ccc21` [Example 933, 1-(3′-chloro-2,5′-difluoro-5-methoxy-4-biphenylyl)-N-(6-methyl-4-pyrimidinyl)-2-oxo-1,2-dihydro-6-quinolinesulfonamide] yielded a half-inhibitory concentration (IC50) (in-vitro Nav 1.7 PX data) of 8 nM.

Compound `COc1cc(-c2ccc(Cl)c(C)c2)ccc1-n1c(=O)cnc2cc(S(=O)(=O)Nc3ccon3)ccc21` [Example 1195, 1-(4′-chloro-3-methoxy-3′-methyl-4-biphenylyl)-N-3-isoxazolyl-2-oxo-1,2-dihydro-6-quinoxalinesulfonamide] came in with an IC50 of 54 nM. In other words, the double-digit nanomolar range.

Compound `O=c1ccc2cc(S(=O)(=O)Nc3ncns3)ccc2n1-c1ccc(-c2cc(F)cc(F)c2)cc1C1CC1` [Example 1048, 1-(3-cyclopropyl-3′,5′-difluoro-4-biphenylyl)-2-oxo-N-1,2,4-thiadiazol-5-yl-1,2-dihydro-6-quinolinesulfonamide] came in with a half-maximal inhibitory concentration (IC50) under setting [1] of 15 nM.

With `COc1nc(-c2ccc(F)cc2)c(Cl)cc1-n1c(=O)ccc2cc(S(=O)(=O)Nc3ccon3)ccc21` (atropisomer, axis not shown; (P)) [Example 1203, (P)-1-(5-chloro-6-(4-fluorophenyl)-2-methoxy-3-pyridinyl)-N-3-isoxazolyl-2-oxo-1,2-dihydro-6-quinolinesulfonamide], the 50% inhibitory concentration (IC50) amounted to 187 nM.

For the setting “in-vitro PatchXpress (PX)”, `COc1cc(-c2cc(F)cnc2OC)c(F)cc1-n1c(=O)ccc2cc(S(=O)(=O)Nc3ccon3)ccc21` [Example 531, 1-(5-fluoro-4-(5-fluoro-2-methoxy-3-pyridinyl)-2-methoxyphenyl)-N-3-isoxazolyl-2-oxo-1,2-dihydro-6-quinolinesulfonamide] gave a 50% inhibitory concentration (IC50) of 342 nM.

Turning to `COc1cnc(-c2cc(Cl)ccc2F)cc1-n1c(=O)ccc2cc(S(=O)(=O)Nc3ccon3)ccc21` [Example 1169, 1-(2-(5-chloro-2-fluorophenyl)-5-methoxy-4-pyridinyl)-N-3-isoxazolyl-2-oxo-1,2-dihydro-6-quinolinesulfonamide], the 50% inhibitory concentration (IC50) stood at 805 nM.

In turn, `COCCCOc1nc(OC)c(-n2c(=O)ccc3cc(S(=O)(=O)Nc4ccon4)ccc32)cc1Cl` [Example 831, 1-(5-chloro-2-methoxy-6-(3-methoxypropoxy)-3-pyridinyl)-N-3-isoxazolyl-2-oxo-1,2-dihydro-6-quinolinesulfonamide] gave an IC50 (in-vitro Nav 1.7 PX data) of 3810 nM.

Turning to `COc1cc(-c2cc(Cl)ccc2F)ccc1-n1c(=O)ccc2cc(S(=O)(=O)Nc3ccon3)ccc21` [Example 1034, 1-(5′-chloro-2′-fluoro-3-methoxy-4-biphenylyl)-N-3-isoxazolyl-2-oxo-1,2-dihydro-6-quinolinesulfonamide], the half-inhibitory concentration (IC50) under setting [1] was 10 nM.

Turning to `COc1cc(-c2cc(OC)c(-n3c(=O)cnc4cc(S(=O)(=O)Nc5ncccn5)ccc43)cc2F)ccc1Cl` [Example 1201, 1-(4′-chloro-2-fluoro-3′,5-dimethoxy-4-biphenylyl)-2-oxo-N-2-pyrimidinyl-1,2-dihydro-6-quinoxalinesulfonamide], the half-maximal inhibitory concentration (IC50) was found to be 110 nM.

Take `COc1nc(-c2cccc(C#N)c2)c(Cl)cc1-n1c(=O)ccc2cc(S(=O)(=O)Nc3ccon3)ccc21` [Example 1091, 1-(5-chloro-6-(3-cyanophenyl)-2-methoxy-3-pyridinyl)-N-3-isoxazolyl-2-oxo-1,2-dihydro-6-quinolinesulfonamide]: half-maximal inhibition (in-vitro Nav 1.7 PX data) (IC50) was put at 20300 nM. This counts as double-digit micromolar.

Turning to `COc1ccc(-c2cc(OC)c(-n3c(=O)ccc4cc(S(=O)(=O)Nc5ccon5)ccc43)cc2F)c(F)c1` [Example 702, 1-(2,2′-difluoro-4′,5-dimethoxy-4-biphenylyl)-N-3-isoxazolyl-2-oxo-1,2-dihydro-6-quinolinesulfonamide], the midpoint of inhibition (in-vitro Nav 1.7 PX data), the IC50, lay at 22 nM.

The compound `COc1cc(F)cc(-c2cc(OC)c(-n3c(=O)ccc4cc(S(=O)(=O)Nc5ccon5)ccc43)cc2F)c1` [Example 710, 1-(2,3′-difluoro-5,5′-dimethoxy-4-biphenylyl)-N-3-isoxazolyl-2-oxo-1,2-dihydro-6-quinolinesulfonamide] came in with a half-maximal inhibitory concentration (IC50) (in-vitro Nav 1.7 PX data) of 14 nM.

In turn, `COc1cc(-c2cccc(C#N)c2)ccc1-n1c(=O)ccc2cc(S(=O)(=O)Nc3ccon3)ccc21` [Example 1019, 1-(3′-cyano-3-methoxy-4-biphenylyl)-N-3-isoxazolyl-2-oxo-1,2-dihydro-6-quinolinesulfonamide] gave an IC50 (in-vitro Nav 1.7 PX data) of 98 nM.

In turn, `COc1cc(-c2cccc(C(F)(F)F)c2)ccc1-n1c(=O)ccc2cc(S(=O)(=O)Nc3cnc(C)cn3)ccc21` [Example 949, 1-(3-methoxy-3′-(trifluoromethyl)-4-biphenylyl)-N-(5-methyl-2-pyrazinyl)-2-oxo-1,2-dihydro-6-quinolinesulfonamide] returned an IC50 (in-vitro Nav 1.7 PX data) of 1240 nM.

In turn, `COc1cc(-c2ccnc(C)c2)c(F)cc1-n1c(=O)ccc2cc(S(=O)(=O)Nc3ccon3)ccc21` [Example 736, 1-(5-fluoro-2-methoxy-4-(2-methyl-4-pyridinyl)phenyl)-N-3-isoxazolyl-2-oxo-1,2-dihydro-6-quinolinesulfonamide] displayed a 50% inhibitory concentration (IC50) (in-vitro Nav 1.7 PX data) of 2810 nM.

For `COc1cc(-c2ccc(OC(F)(F)F)cc2)c(F)cc1-n1c(=O)ccc2cc(S(=O)(=O)Nc3ccon3)ccc21` [Example 760, 1-(2-fluoro-5-methoxy-4′-(trifluoromethoxy)-4-biphenylyl)-N-3-isoxazolyl-2-oxo-1,2-dihydro-6-quinolinesulfonamide], the midpoint of inhibition (in-vitro Nav 1.7 PX data), the IC50, lay at 15 nM.

As for `COc1cc(Br)c(F)cc1-n1c(=O)ccc2cc(S(=O)(=O)Nc3cc(OCC4(C)CC4)ncn3)ccc21` (atropisomer, axis not shown; (P)) [Example 1189, (P)-1-(4-bromo-5-fluoro-2-methoxyphenyl)-N-(6-((1-methylcyclopropyl)methoxy)-4-pyrimidinyl)-2-oxo-1,2-dihydro-6-quinolinesulfonamide], inhibition was half-maximal at 8360 nM (IC50).

Compound `COc1cc(-c2ccc(F)c(F)c2)ccc1-n1c(=O)ccc2cc(S(=O)(=O)Nc3cccnn3)ccc21` [Example 896, 1-(3′,4′-difluoro-3-methoxy-4-biphenylyl)-2-oxo-N-3-pyridazinyl-1,2-dihydro-6-quinolinesulfonamide] gave an IC50 (in-vitro Nav 1.7 PX data) of 47 nM. That is a double-digit nanomolar value.

As for `COc1ccc(-c2ccc(F)c(C#N)c2)cc1-n1c(=O)ccc2cc(S(=O)(=O)Nc3ccon3)ccc21` [Example 834, 1-(3′-cyano-4′-fluoro-4-methoxy-3-biphenylyl)-N-3-isoxazolyl-2-oxo-1,2-dihydro-6-quinolinesulfonamide], where the note is “in-vitro Nav 1.7 PX data”, 294 nM corresponded to half-maximal inhibition (IC50).

Consider `COc1cc(-c2ccc(F)c(F)c2)c(F)cc1-n1c(=O)cnc2cc(S(=O)(=O)Nc3ccon3)ccc21` [Example 1179, N-3-isoxazolyl-2-oxo-1-(2,3′,4′-trifluoro-5-methoxy-4-biphenylyl)-1,2-dihydro-6-quinoxalinesulfonamide], for which the concentration for half-maximal inhibition (IC50) is 62 nM.

`COc1ccc(C#N)cc1-c1cc(OC)c(-n2c(=O)ccc3cc(S(=O)(=O)Nc4ccon4)ccc32)cc1F` [Example 718, 1-(5′-cyano-2-fluoro-2′,5-dimethoxy-4-biphenylyl)-N-3-isoxazolyl-2-oxo-1,2-dihydro-6-quinolinesulfonamide] came in with an IC50 (in-vitro Nav 1.7 PX data) of 153 nM. That is a sub-micromolar value.

In turn, `COc1cc(-c2ccc(F)c(Cl)c2)ccc1-n1c(=O)cnc2cc(S(=O)(=O)Nc3ccon3)ccc21` [Example 1198, 1-(3′-chloro-4′-fluoro-3-methoxy-4-biphenylyl)-N-3-isoxazolyl-2-oxo-1,2-dihydro-6-quinoxalinesulfonamide] showed an IC50 of 39 nM.

`COc1cc(C#CC2CC2)c(F)cc1-n1c(=O)ccc2cc(S(=O)(=O)Nc3ccon3)ccc21` [Example 1130, 1-(4-(cyclopropylethynyl)-5-fluoro-2-methoxyphenyl)-N-3-isoxazolyl-2-oxo-1,2-dihydro-6-quinolinesulfonamide] yielded an IC50 (in-vitro Nav 1.7 PX data) of 209 nM.
